Source: US4818753A, “Synthesis and method of use for 2, 4 diaminoquinazoline” (SRI International, priority 1987, dated 1989)
In brackets after ≈: the same amount, converted by molar mass. Like-named read-outs stand apart in the source and are kept apart here.

Key:
Type in all cases: cell-based
[1] = system: Candida albicans (10231); assay: Broth dilution assay, F1
Method: (§1) Both broth dilution and agar dilution assays were used to assess the antifungal activity of the compounds of the invention. The cultures were maintained in Sabouraud dextrose broth (SDB) and diluted with […]. 2.5 l of SDB was prepared and distributed into sterile vessels as follows: 49 ml into 1 vessel, 27 ml into 3 vessels, 45 ml into 2 vessels.
(§2) Five mg/ml concentration of each compound was prepared using DMSO as the solvent; warming and sonication were necessary to dissolve each compound completely. The compounds were then diluted in SDB according to the following protocol:
(§3) 5. 1 ug/ml--5 ml (3)+45 ml SDB
(§4) The compound at each concentration in SDB was then dispensed into 6 tubes each containing 4 ml […]. Controls (without any compound) were also prepared to insure that the solvent itself was not fungicidal or fungistatic.
(§5) Cultures were grown in SDB for 24 h at 30° C. C. albicans and C. neoformans were diluted 1:10 in SDB before inoculation. Inoculation volume for yeasts was 2 drops of diluted cells per tube. The fungal cultures were homogenized before inoculation. The same volume was added, but without dilution. All tubes were incubated at room temperature on a rotating wheel. After 16 h of incubation at room temperature, the fungistatic assay was set up on agar plates. […] Yeasts were inoculated onto SDA (the corresponding agar) plates and fungi onto mycosel agar plates. These plates were then incubated at room temperature.

[2] = system: Cryptococcus neoformans (13690); assay: Broth dilution assay, F3
Method: as §1, §2, §3, §4, §5

[3] = system: Epidermophyton floccosum (15693); assay: Broth dilution assay, F4
Method: as §1, §2, §3, §4, §5

[4] = system: Trichophyton mentagrophytes (11481); assay: Broth dilution assay, F6
Method: as §1, §2, §3, §4, §5

[5] = system: Microsporum gypseum (14683); assay: Broth dilution assay, F12; details: Nannizzia gypsea
Method: as §1, §2, §3, §4, §5

[6] = system: Candida albicans (14053); assay: Broth dilution assay, F2; details: for MIC: Table 1, F2, Sabouraud Dextrose Broth pH 5.5, read-out: Minimum Inhibitory Concentration (S, fungistatic); for MFC: Table 1, F2, Sabouraud Dextrose Broth pH 5.5, read-out: Minimum Lethal Concentration (C, fungicidal)
Method: as §1, §2, §3, §4, §5

[7] = system: Penicillium citrinum (9849); assay: Broth dilution assay, F19; details: for MIC: Table 1, F19, Sabouraud Dextrose Broth pH 5.5, read-out: Minimum Inhibitory Concentration (S, fungistatic); for MFC: Table 1, F19, Sabouraud Dextrose Broth pH 5.5, read-out: Minimum Lethal Concentration (C, fungicidal)
Method: as §1, §2, §3, §4, §5

[8] = system: fungi; assay: Broth dilution assay, whole panel; details: Tables 1 and 2
Method: as §1, §2, §3, §4
as §5, with “These plates were then incubated at room temperature.” left out

[9] = Table 2, F1, Sabouraud Dextrose Broth pH 5.5, read-out: C Fungicidal
[10] = Table 2, F1, Sabouraud Dextrose Broth pH 5.5, read-out: S Fungistatic
[11] = Table 2, F3, Sabouraud Dextrose Broth pH 5.5, read-out: C Fungicidal
[12] = Table 2, F3, Sabouraud Dextrose Broth pH 5.5, read-out: S Fungistatic
[13] = Table 2, F4, Sabouraud Dextrose Broth pH 5.5, read-out: C Fungicidal
[14] = Table 2, F4, Sabouraud Dextrose Broth pH 5.5, read-out: S Fungistatic
[15] = Table 2, F6, Sabouraud Dextrose Broth pH 5.5, read-out: C Fungicidal
[16] = Table 2, F6, Sabouraud Dextrose Broth pH 5.5, read-out: S Fungistatic
[17] = Table 2, Sabouraud Dextrose Broth pH 5.5, read-out: C Fungicidal
[18] = Table 2, Sabouraud Dextrose Broth pH 5.5, read-out: S Fungistatic
[19] = Table 1, F1, Sabouraud Dextrose Broth pH 5.5, read-out: Minimum Inhibitory Concentration (S, fungistatic)
[20] = Table 1, F1, Sabouraud Dextrose Broth pH 5.5, read-out: Minimum Lethal Concentration (C, fungicidal)
[21] = Table 1, F3, Sabouraud Dextrose Broth pH 5.5, read-out: Minimum Inhibitory Concentration (S, fungistatic)
[22] = Table 1, F3, Sabouraud Dextrose Broth pH 5.5, read-out: Minimum Lethal Concentration (C, fungicidal)
[23] = Table 1, F4, Sabouraud Dextrose Broth pH 5.5, read-out: Minimum Inhibitory Concentration (S, fungistatic)
[24] = Table 1, F4, Sabouraud Dextrose Broth pH 5.5, read-out: Minimum Lethal Concentration (C, fungicidal)
[25] = Table 1, F6, Sabouraud Dextrose Broth pH 5.5, read-out: Minimum Inhibitory Concentration (S, fungistatic)
[26] = Table 1, F6, Sabouraud Dextrose Broth pH 5.5, read-out: Minimum Lethal Concentration (C, fungicidal)
[27] = Table 1, Sabouraud Dextrose Broth pH 5.5, read-out: Minimum Inhibitory Concentration (S, fungistatic)
[28] = Table 1, Sabouraud Dextrose Broth pH 5.5, read-out: Minimum Lethal Concentration (C, fungicidal)

Row | SMILES | MIC [1, 10] [µg/mL] | MIC [2, 12] [µg/mL] | MIC [4, 16] [µg/mL] | MIC [5, 18] [µg/mL] | MIC [1, 19] [µg/mL] | MIC [6] [µg/mL] | MIC [2, 21] [µg/mL] | MIC [3, 23] [µg/mL] | MIC [4, 25] [µg/mL] | MIC [5, 27] [µg/mL] | MFC [1, 9] [µg/mL] | MFC [2, 11] [µg/mL] | MFC [3, 13] [µg/mL] | MFC [4, 15] [µg/mL] | MFC [5, 17] [µg/mL] | MFC [1, 20] [µg/mL] | MFC [6] [µg/mL] | MFC [2, 22] [µg/mL] | MFC [4, 26] [µg/mL] | MFC [5, 28] [µg/mL] | further results
1 | Cc1c(CCC(C)C)ccc2nc(N)nc(N)c12 [--CH2 CH2 CH(CH3)2] | – | – | – | – | 100 (≈ 409 µM) | 100 (≈ 409 µM) | 10 (≈ 40.9 µM) | 10 (≈ 40.9 µM) | > 30 | 30 (≈ 123 µM) | – | – | – | – | – | 100 (≈ 409 µM) | 100 (≈ 409 µM) | 30 (≈ 123 µM) | > 30 | > 30 | MFC [3, 24]: 10 µg/mL (≈ 40.9 µM); MIC [7]: 100 µg/mL (≈ 409 µM); MFC [7]: > 100 µg/mL
2 | CCCCCc1ccc2nc(N)nc(N)c2c1C [--CH2 (CH2)3 CH 3] | – | – | – | – | 100 (≈ 409 µM) | 100 (≈ 409 µM) | 10 (≈ 40.9 µM) | 10 (≈ 40.9 µM) | 30 (≈ 123 µM) | 30 (≈ 123 µM) | – | – | – | – | – | 100 (≈ 409 µM) | 100 (≈ 409 µM) | 30 (≈ 123 µM) | > 30 | > 30 | MFC [3, 24]: 30 µg/mL (≈ 123 µM); MIC [7]: 100 µg/mL (≈ 409 µM); MFC [7]: 100 µg/mL (≈ 409 µM)
3 | Cc1cccc2nc(N)nc(N)c12 [H] | – | – | – | – | > 100 | > 100 | > 100 | > 30 | > 30 | > 30 | – | – | – | – | – | > 100 | > 100 | > 100 | > 30 | > 30 | MFC [3, 24]: > 30 µg/mL; MIC [7]: > 100 µg/mL; MFC [7]: > 100 µg/mL
4 | CCCCCCCc1ccc2nc(N)nc(N)c2c1C [R^1 = CH3 R^2 = --CH2 (CH2)5 CH3, 2,4-Diamino-5-methyl-6-n-heptylquinazoline] | 30 (≈ 110 µM) | 3 (≈ 11 µM) | 30 (≈ 110 µM) | 30 (≈ 110 µM) | – | – | – | – | – | – | > 100 | 10 (≈ 36.7 µM) | 30 (≈ 110 µM) | 30 (≈ 110 µM) | 100 (≈ 367 µM) | – | – | – | – | – | MIC [3, 14]: 10 µg/mL (≈ 36.7 µM)
5 | CCCCCCc1ccc2nc(N)nc(N)c2c1C [--CH2 (CH2)4 CH3, 2,4-Diamino-5-methyl-6-n-hexylquinazoline] | 30 (≈ 116 µM) | 3 (≈ 11.6 µM) | 30 (≈ 116 µM) | 30 (≈ 116 µM) | 30 (≈ 116 µM) | 30 (≈ 116 µM) | 3 (≈ 11.6 µM) | 3 (≈ 11.6 µM) | 30 (≈ 116 µM) | 10 (≈ 38.7 µM) | > 100 | 3 (≈ 11.6 µM) | 30 (≈ 116 µM) | 30 (≈ 116 µM) | 100 (≈ 387 µM) | 30 (≈ 116 µM) | 30 (≈ 116 µM) | 10 (≈ 38.7 µM) | > 30 | 30 (≈ 116 µM) | MIC [7]: 100 µg/mL (≈ 387 µM); MFC [7]: 100 µg/mL (≈ 387 µM); fungicidal and fungistatic activity in words [8]: best fungicidal and fungistatic activity

Further lines, with some results ahead:

Row | MIC [1, 10] [µg/mL] | MIC [2, 12] [µg/mL] | MIC [4, 16] [µg/mL] | MIC [5, 18] [µg/mL] | MIC [1, 19] [µg/mL] | MIC [6] [µg/mL] | MIC [2, 21] [µg/mL] | MIC [3, 23] [µg/mL] | MIC [4, 25] [µg/mL] | MIC [5, 27] [µg/mL] | SMILES | MFC [1, 9] [µg/mL] | MFC [2, 11] [µg/mL] | MFC [3, 13] [µg/mL] | MFC [4, 15] [µg/mL] | MFC [5, 17] [µg/mL] | MFC [1, 20] [µg/mL] | MFC [6] [µg/mL] | MFC [2, 22] [µg/mL] | MFC [4, 26] [µg/mL] | MFC [5, 28] [µg/mL] | further results
6 | 100 (≈ 359 µM) | 10 (≈ 35.9 µM) | 30 (≈ 108 µM) | 100 (≈ 359 µM) | – | – | – | – | – | – | Cc1c(CCc2ccccc2)ccc2nc(N)nc(N)c12 [R^1 = CH3 R^2 = --CH2 (CH2)C6 H5, 2,4-Diamino-5-methyl-6-phenethylquinazline] | > 100 | 30 (≈ 108 µM) | 100 (≈ 359 µM) | 30 (≈ 108 µM) | > 100 | – | – | – | – | – | MIC [3, 14]: 30 µg/mL (≈ 108 µM)
7 | 30 (≈ 95.4 µM) | 3 (≈ 9.54 µM) | > 100 | 100 (≈ 318 µM) | – | – | – | – | – | – | CCCCCCCCCCc1ccc2nc(N)nc(N)c2c1C [R^1 = CH3 R^2 = --CH2 (CH2)8 CH3, 2,4-Diamino-5-methyl-6-n-decylquinazoline] | > 100 | 30 (≈ 95.4 µM) | – | 30 (≈ 95.4 µM) | > 100 | – | – | – | – | – | –
8 | 100 (≈ 349 µM) | 3 (≈ 10.5 µM) | > 100 | 100 (≈ 349 µM) | – | – | – | – | – | – | CCCCCCCCCc1ccc2nc(N)nc(N)c2c1 [R^1 = H R^2 = CH2 (CH2)7 CH3] | > 100 | > 30 | ≤ 0.3 | > 100 | > 100 | – | – | – | – | – | MIC [3, 14]: 30 µg/mL (≈ 105 µM)
